What all share (format): biochemical
The target in assay [1] is T1, human Lck enzyme (Homo sapiens, UniProt P06239).
T1 construct: purchased Carna Biosciences, Inc. 08-170
Kind of assay: Lck enzyme inhibitory activity (time-resolved fluorometry, biotinylated peptide phosphorylation). The following applies: read-out: LCK_IC50. Put shortly: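 Readout pairs a europium cryptate-labelled anti-phosphotyrosine antibody with XL665-streptavidin, measured by time-resolved fluorescence. IC50 derived from percent inhibition against untreated controls.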

Assay [2] addresses T2, human Yes1 enzyme (Homo sapiens, UniProt P07947).
T2 construct: made in house
Kind of assay: Yes1 enzyme inhibitory activity (time-resolved fluorometry, biotinylated peptide phosphorylation). The following applies: read-out: YES_IC50. Put shortly: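 Inhibition was expressed against a compound-free control to give IC50, using TR-FRET read-out (Eu-cryptate anti-pTyr antibody, streptavidin-XL665).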

In assay [3] the target is T3, human Src enzyme (Homo sapiens, UniProt P12931).
T3 construct: purchased Carna Biosciences, Inc. 08-173
T3 sequence (P12931 whole entry): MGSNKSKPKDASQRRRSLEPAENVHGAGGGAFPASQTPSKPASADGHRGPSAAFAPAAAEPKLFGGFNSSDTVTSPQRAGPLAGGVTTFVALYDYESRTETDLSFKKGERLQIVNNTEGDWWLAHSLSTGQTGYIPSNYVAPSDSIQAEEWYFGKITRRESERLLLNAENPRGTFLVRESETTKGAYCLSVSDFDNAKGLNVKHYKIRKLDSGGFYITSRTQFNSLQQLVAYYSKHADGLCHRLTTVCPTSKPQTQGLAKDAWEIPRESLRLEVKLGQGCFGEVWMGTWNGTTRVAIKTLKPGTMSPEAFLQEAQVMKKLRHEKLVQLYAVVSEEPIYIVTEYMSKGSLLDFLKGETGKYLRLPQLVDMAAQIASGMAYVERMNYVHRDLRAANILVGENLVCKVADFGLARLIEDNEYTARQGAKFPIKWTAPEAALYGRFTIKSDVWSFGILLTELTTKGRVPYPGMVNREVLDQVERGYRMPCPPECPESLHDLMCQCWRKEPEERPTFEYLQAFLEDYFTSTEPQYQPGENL
The assay is described as follows: Src enzyme inhibitory activity (time-resolved fluorometry, biotinylated peptide phosphorylation). The following applies: read-out: SRC_IC50. An outline of the steps: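 Compounds were tested for blocking tyrosine phosphorylation of a biotinylated peptide substrate by recombinant human Src. Phosphorylated product was quantified by time-resolved fluorometry using europium cryptate and XL665 conjugates, and IC50 was calculated against the compound-free control.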

Setting [4] is: biotinylated peptide phosphorylation.

Where two headings read alike, the source gives them in different places.

T1 sequence (P06239 whole entry): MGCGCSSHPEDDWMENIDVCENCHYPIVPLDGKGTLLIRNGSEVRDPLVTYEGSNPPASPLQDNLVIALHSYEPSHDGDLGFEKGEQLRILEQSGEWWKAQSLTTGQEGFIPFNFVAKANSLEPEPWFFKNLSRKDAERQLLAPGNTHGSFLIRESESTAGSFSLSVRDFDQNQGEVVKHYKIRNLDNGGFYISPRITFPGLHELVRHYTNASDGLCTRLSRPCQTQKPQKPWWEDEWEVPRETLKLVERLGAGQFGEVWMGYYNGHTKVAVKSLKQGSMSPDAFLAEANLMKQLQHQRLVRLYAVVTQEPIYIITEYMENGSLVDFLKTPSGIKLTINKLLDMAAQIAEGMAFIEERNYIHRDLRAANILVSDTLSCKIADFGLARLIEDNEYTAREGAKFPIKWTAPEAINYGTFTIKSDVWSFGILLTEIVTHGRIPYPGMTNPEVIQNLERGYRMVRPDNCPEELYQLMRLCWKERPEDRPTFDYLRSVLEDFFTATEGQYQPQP
T2 sequence (P07947 whole entry): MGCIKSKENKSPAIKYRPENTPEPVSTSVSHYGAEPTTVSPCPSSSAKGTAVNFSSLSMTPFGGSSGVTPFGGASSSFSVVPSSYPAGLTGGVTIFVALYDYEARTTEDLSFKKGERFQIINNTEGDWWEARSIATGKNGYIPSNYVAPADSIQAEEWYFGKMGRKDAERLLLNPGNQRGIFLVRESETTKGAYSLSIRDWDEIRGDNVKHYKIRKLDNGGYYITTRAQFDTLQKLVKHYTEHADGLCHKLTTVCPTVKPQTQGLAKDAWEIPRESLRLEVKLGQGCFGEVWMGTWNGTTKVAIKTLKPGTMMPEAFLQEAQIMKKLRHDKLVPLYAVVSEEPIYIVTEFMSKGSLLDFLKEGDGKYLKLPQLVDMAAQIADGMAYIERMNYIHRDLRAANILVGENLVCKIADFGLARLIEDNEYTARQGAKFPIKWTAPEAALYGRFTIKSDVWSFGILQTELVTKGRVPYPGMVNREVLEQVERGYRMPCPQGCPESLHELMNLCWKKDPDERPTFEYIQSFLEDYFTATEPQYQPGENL

With `Cc1cc(Oc2c(F)cccc2F)ncc1-n1ncc(C(=O)c2cc3cc(OCC(F)F)c(NS(=O)(=O)c4cncc(F)c4)cc3[nH]2)c1N` [Example 5-1-576, N-[2-[5-amino-1-[6-(2,6-difluorophenoxy)-4-methylpyridin-3-yl]pyrazole-4-carbonyl]-5-(2,2-difluoroethoxy)-1H-indol-6-yl]-5-fluoropyridine-3-sulfonamide], the results for the IC50 in assay [1] (setting [4]), in assay [2] (setting [4]) and in assay [3] (setting [4]) were 14 nM, 3.1 nM and 470 nM, respectively.

`Cc1cc(Oc2c(F)cccc2F)ncc1-n1ncc(C(=O)c2cc3cc(F)c(N4CC5(CCCC5)NS4(=O)=O)cc3[nH]2)c1N` [Example 5-1-399, [5-amino-1-[6-(2,6-difluorophenoxy)-4-methylpyridin-3-yl]pyrazol-4-yl]-[6-(2,2-dioxo-2λ6-thia-1,3-diazaspiro[4.4]nonan-3-yl)-5-fluoro-1H-indol-2-yl]methanone]: the IC50 worked out at 53 nM in assay [1] (setting [4]), 5.7 nM in assay [2] (setting [4]) and 250 nM in assay [3] (setting [4]).

`Cc1cc(Oc2ccccc2F)ccc1-n1ncc(C(=O)c2cc3cc(F)c(N4C(=O)N[C@@H](C(C)C)C4=O)cc3[nH]2)c1N` [Example 5-1-447, (5S)-3-[2-[5-amino-1-[4-(2-fluorophenoxy)-2-methylphenyl]pyrazole-4-carbonyl]-5-fluoro-1H-indol-6-yl]-5-propan-2-ylimidazolidine-2,4-dione]: the IC50 in assay [1] (setting [4]) came to 12 nM; in assay [2] (setting [4]), 2 nM; in assay [3] (setting [4]), 84 nM.

With `Cc1cc(Oc2ccccc2F)cc(F)c1-n1ncc(C(=O)c2cc3cc(OCC(F)F)c(NC4COC4)cc3[nH]2)c1N` [Example 4-23-019, [5-amino-1-[2-fluoro-4-(2-fluorophenoxy)-6-methylphenyl]pyrazol-4-yl]-[5-(2,2-difluoroethoxy)-6-(oxetan-3-ylamino)-1H-indol-2-yl]methanone], the IC50 was determined as 6.4 nM in assay [1] (setting [4]), 1.8 nM in assay [2] (setting [4]) and 28 nM in assay [3] (setting [4]).

Regarding `Cc1cc(Oc2ccccc2F)ccc1-n1ncc(C(=O)c2cc3cc(F)c(NS(=O)(=O)c4cccc(Cl)n4)cc3[nH]2)c1N` [Example 5-1-527, N-[2-[5-amino-1-[4-(2-fluorophenoxy)-2-methylphenyl]pyrazole-4-carbonyl]-5-fluoro-1H-indol-6-yl]-6-chloropyridine-2-sulfonamide], the IC50 was 110 nM in assay [1] (setting [4]), 3.2 nM in assay [2] (setting [4]) and 500 nM in assay [3] (setting [4]).

Regarding `Cc1cc(Oc2c(F)cccc2F)ncc1-n1ncc(C(=O)c2cc3cc(F)c(N4C(=O)NC5(CCCCC5)C4=O)cc3[nH]2)c1N` [Example 5-1-369, 3-[2-[5-amino-1-[6-(2,6-difluorophenoxy)-4-methylpyridin-3-yl]pyrazole-4-carbonyl]-5-fluoro-1H-indol-6-yl]-1,3-diazaspiro[4.5]decane-2,4-dione], the IC50 in assay [1] was 79 nM; in assay [2], 22 nM; in assay [3], 560 nM.

In the case of `Cc1cc(-n2ncc(C(=O)c3cc4cc(N5CCOCC5)c(Br)cc4[nH]3)c2N)ccc1Oc1ccccc1F` [Example 5-1-151, [5-amino-1-[4-(2-fluorophenoxy)-3-methylphenyl]pyrazol-4-yl]-(6-bromo-5-morpholin-4-yl-1H-indol-2-yl)methanone], the IC50 in assay [1] came to 80 nM; in assay [2], 2.9 nM; in assay [3] it was 600 nM.

Turning to `Cc1cc(Oc2ccccc2F)ccc1-n1ncc(C(=O)c2cc3cc(OC(F)F)c(NC4CCN(S(C)(=O)=O)CC4)cc3[nH]2)c1N` [Example 4-23-010, [5-amino-1-[4-(2-fluorophenoxy)-2-methylphenyl]pyrazol-4-yl]-[5-(difluoromethoxy)-6-[(1-methylsulfonylpiperidin-4-yl)amino]-1H-indol-2-yl]methanone], the IC50 in assay [1] (setting [4]) is 25 nM; in assay [2] (setting [4]), 7.2 nM; in assay [3] (setting [4]) it was 34 nM.

As for `Cc1cc(Oc2ccccc2F)ccc1-n1ncc(C(=O)c2cc3cc(C(C)C)c(NS(C)(=O)=O)cc3[nH]2)c1N` [Example 5-1-267, N-[2-[5-amino-1-[4-(2-fluorophenoxy)-2-methylphenyl]pyrazole-4-carbonyl]-5-propan-2-yl-1H-indol-6-yl]methanesulfonamide], the IC50 in assay [1] was found to be 17 nM; in assay [2] it was 2 nM; in assay [3], 21 nM.

With `Cc1cc(Oc2ccccc2Cl)ncc1-n1ncc(C(=O)c2cc3cc(F)c(NS(=O)(=O)C4CC4)cc3[nH]2)c1N` [Example 4-7-015, N-[2-[5-amino-1-[6-(2-chlorophenoxy)-4-methylpyridin-3-yl]pyrazole-4-carbonyl]-5-fluoro-1H-indol-6-yl]cyclopropanesulfonamide], the results for the IC50 in assay [1] (setting [4]), in assay [2] (setting [4]) and in assay [3] (setting [4]) were 17 nM, 0.92 nM and 110 nM, respectively.

With `Cc1cc2cc(C(=O)c3cnn(-c4ccc(Oc5ccccc5F)cc4C)c3N)[nH]c2cc1NS(=O)(=O)CC(=O)N1CCOCC1` [Example 4-10-007, N-{2-{5-amino-1-[4-(2-fluorophenoxy)-2-methylphenyl]pyrazole-4-carbonyl}-5-methyl-1H-indol-6-yl}-2-morpholin-4-yl-2-oxoethanesulfonamide], the IC50 in assay [1] (setting [4]) turned out to be 8.5 nM; in assay [2] (setting [4]), 0.48 nM; in assay [3] (setting [4]), 13 nM.

With `Nc1c(C(=O)c2cc3cc(F)c(NS(=O)(=O)CCCF)cc3[nH]2)cnn1-c1c(Cl)cc(Oc2cccc(F)c2F)cc1Cl` [Example 5-1-028, N-[2-[5-amino-1-[2,6-dichloro-4-(2,3-difluorophenoxy)phenyl]pyrazole-4-carbonyl]-5-fluoro-1H-indol-6-yl]-3-fluoropropane-1-sulfanamide], the IC50 in assay [1] was 200 nM; in assay [2] it was 13 nM; in assay [3] it was 350 nM.

Consider `Cc1cc(-n2ncc(C(=O)c3cc4cc(OC5CCN(C(C)C)CC5)c(N5C(=O)N[C@@H](Cc6ccccc6)C5=O)cc4[nH]3)c2N)ccc1Oc1ccccc1F` [Example 5-1-294, (5S)-3-[2-[5-amino-1-[4-(2-fluorophenoxy)-3-methylphenyl]pyrazole-4-carbonyl]-5-(1-propan-2-ylpiperidin-4-yl)oxy-1H-indol-6-yl]-5-benzylimidazolidine-2,4-dione], for which the IC50 came out at 110 nM in assay [1], 2.2 nM in assay [2] and 960 nM in assay [3].

In the case of `Cc1cc(-n2ncc(C(=O)c3cc4cc(OCC(F)F)c(N5CCN(S(C)(=O)=O)CC5)cc4[nH]3)c2N)ccc1Oc1ccccc1F` [Example 5-1-171, [5-amino-1-[4-(2-fluorophenoxy)-3-methylphenyl]pyrazol-4-yl]-[5-(2,2-difluoroethoxy)-6-(4-methylsulfonylpiperazin-1-yl)-1H-indol-2-yl]methanone], the IC50 came out at 49 nM in assay [1], 1.1 nM in assay [2] and 79 nM in assay [3].

For `Cc1cc(Oc2ccccc2F)ncc1-n1ncc(C(=O)c2cc3cc(OCC(F)F)c(N4CCC(N5CCOCC5)CC4)cc3[nH]2)c1N` [Example 4-25-026, {5-amino-1-[6-(2-fluorophenoxy)-4-methylpyridin-3-yl]pyrazol-4-yl}-[5-(2,2-difluoroethoxy)-6-(4-morpholin-4-ylpiperidin-1-yl)-1H-indol-2-yl]methanone], the IC50 was 1.6 nM in assay [1] (setting [4]), 0.92 nM in assay [2] (setting [4]) and 12 nM in assay [3] (setting [4]).

Regarding `CC(=O)N1CCC(c2cc3[nH]c(C(=O)c4cnn(-c5cnc(Oc6ccccc6F)cc5C)c4N)cc3cc2C)CC1` [Example 5-1-133, 1-[4-[2-[5-amino-1-[6-(2-fluorophenoxy)-4-methylpyridin-3-yl]pyrazole-4-carbonyl]-5-methyl-1H-indol-6-yl]piperidin-1-yl]ethanone], the IC50 came to 2.5 nM in assay [1], 0.63 nM in assay [2] and 6.1 nM in assay [3].

As for `Cc1cc(Oc2c(F)cccc2F)ncc1-n1ncc(C(=O)c2cc3cc(SC(F)F)c(NS(=O)(=O)CCCF)cc3[nH]2)c1N` [Example 5-1-320, N-[2-[5-amino-1-[6-(2,6-difluorophenoxy)-4-methylpyridin-3-yl]pyrazole-4-carbonyl]-5-(difluoromethylsulfanyl)-1H-indol-6-yl]-3-fluoropropane-1-sulfonamide], the IC50 in assay [1] came to 140 nM; in assay [2], 18 nM; in assay [3] it was 680 nM.

With `Cc1cc(Oc2ccccc2F)cc(F)c1-n1ncc(C(=O)c2cc3cc(OC(F)F)c(N4CCCC4=O)cc3[nH]2)c1N` [Example 4-25-015, 1-[2-[5-amino-1-[2-fluoro-4-(2-fluorophenoxy)-6-methylphenyl]pyrazole-4-carbonyl]-5-(difluoromethoxy)-1H-indol-6-yl]pyrrolidin-2-one], the IC50 in assay [1] (setting [4]) amounted to 8.2 nM; in assay [2] (setting [4]), 4.9 nM; in assay [3] (setting [4]) it was 44 nM.

In the case of `Cc1cc(-n2ncc(C(=O)c3cc4cc(OC5CCN(C(C)C)CC5)c(-c5cccs5)cc4[nH]3)c2N)ccc1Oc1ccccc1F` [Example 5-1-238, [5-amino-1-[4-(2-fluorophenoxy)-3-methylphenyl]pyrazol-4-yl]-[5-(1-propan-2-ylpiperidin-4-yl)oxy-6-thiophen-2-yl-1H-indol-2-yl]methanone], the IC50 in assay [1] came to 340 nM; in assay [2] it was 8.1 nM; in assay [3] it was 860 nM.

For `Cc1cc(-n2ncc(C(=O)c3cc4cc(OC5CCN(C(C)C)CC5)c(N5CCOC5=O)cc4[nH]3)c2N)ccc1Oc1ccccc1F` [Example 5-1-178, 3-(2-(5-amino-1-(4-(2-fluorophenoxy)-3-methylphenyl)-1H-pyrazole-4-carbonyl)-5-((1-isopropylpiperidin-4-yl)oxy)-1H-indol-6-yl)oxazolidin-2-one], the IC50 in assay [1] came to 3.4 nM; in assay [2], 0.37 nM; in assay [3] it was 48 nM.

For the origin of these results see patent US10479780B2, “Aminopyrazole derivatives” (Chugai Seiyaku Kabushiki Kaisha, priority 2015, dated 2019).
